Measured values published in paper PMC6010093, “α-Glucosidase inhibitory activity and cytotoxic effects of some cyclic urea and carbamate derivatives” (Journal of Enzyme Inhibition and Medicinal Chemistry, 2017).
Entries after “also recorded” stand apart in the source; their conditions may differ.

Key:
[1] = system: HeLa, cervix adenocarcinoma cell line; assay: MTT cytotoxicity assay, HeLa; format: cell-based; conditions: Homo sapiens, 72 h exposure, mean ± standard deviation
[2] = system: A549, non-small cell lung carcinoma cell line; assay: MTT cytotoxicity assay, A549; format: cell-based; conditions: Homo sapiens, 72 h exposure, mean ± standard deviation
[3] = system: MDA-MB-453 human breast cancer cell line; assay: MTT cytotoxicity assay, MDA-MB-453; format: cell-based; conditions: 72 h exposure, mean ± standard deviation
HeLa cells = assay: Morphological evaluation of cell death (acridine orange/ethidium bromide staining, fluorescence microscope); format: cell-based, human
Method: After 24 h of seeding 80 000 HeLa cells per well, they were treated with compound dilutions of IC50 and 2 × IC50 in control only nutrient medium was added. After another 24 h of incubation cells were stained with acridine orange AO and ethidium bromide EB (3 μg/mLAO +10 μg/mL EB in PBS), then visualized under a fluorescence microscope (Carl Zeiss, Oberkochen, Germany) PALM MicroBeam with Axio Observer.Z1 using AxioCam MRm (filters Alexa 488 and 568), as described in literature.
Morphological changes were observed after cells were stained with acridine orange and ethidium-bromide. Acridine orange can penetrate into the living cells and emits green fluorescence, while ethidium-bromide enters the cells after cell membrane damage and emits red fluorescence. […] Observed control cells are with unchanged morphology, stained green.

[4] = 24 h treatment with 2 × IC50 concentration of compound
[5] = 24 h treatment with IC50 dilution of compound

Row | SMILES | IC50 [1] | IC50 [2] | IC50 [3] | Morphological changes of HeLa cells (cell death type) (HeLa cells; [4]) | Morphological changes of HeLa cells (cell death type) (HeLa cells; [5])
1 | CC(C)(C)OC(=O)N1CCC(NC(=O)OCc2ccccc2)CC1 [Compound 8] | 158 ± 6.04 µM | 155.8 ± 0.7 µM | 112 ± 4.91 µM | necrotic changes | late apoptotic signs; also recorded: apoptosis occurred
2 | COc1cc(NC(=O)OCc2ccccc2)cc(OC)c1OC [Compound 12, benzyl (3,4,5-trimethoxyphenyl)carbamate] | 139 ± 8.28 µM | 180 ± 2.57 µM | 108 ± 4.95 µM | necrotic changes | late apoptotic signs; also recorded: apoptosis occurred
3 | COC(=O)Nc1cc(OC)c(OC)c(OC)c1 [Compound 11] | 194.4 ± 1.44 µM | 200 ± 2.37 µM | 164 ± 3.93 µM | necrotic changes | late apoptotic signs; also recorded: apoptosis occurred
